Measurements taken from US7304174B2, “CaSR antagonist” (Japan Tobacco Inc., priority 2003, dated 2007).

Biological target: T1, human calcium receptor (Homo sapiens, UniProt P41180)
T1 construct: expressed in transfected cells; host or cells: cell strain derived from rat adrenal, co-transformed with luciferase cDNA
T1 sequence (P41180 20-1078): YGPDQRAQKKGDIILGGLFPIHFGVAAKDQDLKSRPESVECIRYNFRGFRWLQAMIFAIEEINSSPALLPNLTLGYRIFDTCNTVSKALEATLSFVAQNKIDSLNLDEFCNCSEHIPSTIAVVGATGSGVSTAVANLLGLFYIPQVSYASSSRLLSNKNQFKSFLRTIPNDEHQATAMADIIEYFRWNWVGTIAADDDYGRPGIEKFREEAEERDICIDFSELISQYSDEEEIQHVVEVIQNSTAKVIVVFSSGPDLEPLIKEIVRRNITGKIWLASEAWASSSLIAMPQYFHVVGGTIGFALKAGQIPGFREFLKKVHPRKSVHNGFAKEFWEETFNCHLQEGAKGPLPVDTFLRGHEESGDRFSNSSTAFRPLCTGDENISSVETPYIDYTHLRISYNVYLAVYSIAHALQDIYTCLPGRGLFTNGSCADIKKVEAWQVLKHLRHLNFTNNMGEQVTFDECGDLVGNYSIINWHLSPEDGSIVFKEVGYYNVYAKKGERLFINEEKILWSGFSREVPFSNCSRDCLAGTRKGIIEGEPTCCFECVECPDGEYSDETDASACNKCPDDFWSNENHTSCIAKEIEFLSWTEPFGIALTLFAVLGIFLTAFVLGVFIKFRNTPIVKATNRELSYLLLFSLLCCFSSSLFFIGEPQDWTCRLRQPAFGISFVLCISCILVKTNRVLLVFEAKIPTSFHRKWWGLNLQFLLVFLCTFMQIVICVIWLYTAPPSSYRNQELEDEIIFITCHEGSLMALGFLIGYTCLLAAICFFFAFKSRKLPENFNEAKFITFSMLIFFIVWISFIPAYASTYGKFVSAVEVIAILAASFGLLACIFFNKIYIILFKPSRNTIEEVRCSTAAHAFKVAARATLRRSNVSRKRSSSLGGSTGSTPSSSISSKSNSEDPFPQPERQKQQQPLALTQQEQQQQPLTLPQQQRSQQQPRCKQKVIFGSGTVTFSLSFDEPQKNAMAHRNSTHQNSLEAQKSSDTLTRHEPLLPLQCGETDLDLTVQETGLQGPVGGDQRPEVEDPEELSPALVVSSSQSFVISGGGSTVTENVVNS
Assay: Evaluation of antagonistic action on calcium receptor using reporter gene (luciferase)
Assay type: cell-based
Settings: transformed rat adrenal derived cells, 5 mM calcium chloride, culture 4 hrs, luciferase activity; read-out: Reporter gene assay (IC50, concentration showing 50% inhibitory rate)
Outline: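 Rat adrenal-derived cells transfected with luciferase and human calcium receptor cDNA, in F12 with 0.5% dialyzed horse serum and 0.25% dialyzed fetal bovine serum. Luciferase luminescence gave % inhibition vs control and blank; IC50 at 50% inhibition.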

Row | Structure (SMILES) | IC50 [nM]
1 | C[C@@H](OC[C@H](O)CNC(C)(C)Cc1ccc(Cl)c(F)c1)c1ccccc1-c1ccc(C(=O)O)c(CO)c1 [Example 1-106, 2′-[1-[(2R)-3-[[1-(4-chloro-3-fluorophenyl)-2-methylpropan-2-yl]amino]-2-hydroxypropoxy]ethyl]-3-(hydroxymethyl)biphenyl-4-carboxylic acid] | 20
2 | C[C@@H](OC[C@H](O)CNC(C)(C)Cc1ccc2ccccc2c1)c1ccccc1-c1ccc(C(=O)O)c(Cl)c1 [Example 1-68, 3-chloro-2′-[1-[(2R)-3-[[1-(naphthalen-2-yl)-2-methylpropan-2-yl]amino]-2-hydroxypropoxy]ethyl]biphenyl-4-carboxylic acid] | 3
3 | C[C@@H](OC[C@H](O)CNC(C)(C)Cc1ccc2ccccc2c1)c1ccccc1-c1ccc(C(=O)O)cc1F [Example 1-62, 2-fluoro-2′-[1-[(2R)-3-[[1-(naphthalen-2-yl)-2-methylpropan-2-yl]amino]-2-hydroxypropoxy]ethyl]biphenyl-4-carboxylic acid] | 8
4 | Cc1ccc(CC(C)(C)NC[C@@H](O)CO[C@H](C)c2ccccc2-c2ccc(C(=O)O)c(C(C)(C)C)c2)cc1F [Example 1-98, 2′-[1-[(2R)-3-[[1-(3-fluoro-4-methylphenyl)-2-methylpropan-2-yl]amino]-2-hydroxypropoxy]ethyl]-3-t-butylbiphenyl-4-carboxylic acid] | 13
5 | CC(OC[C@H](O)CNC(C)(C)Cc1ccc2ccccc2c1)c1ccccc1OCc1cccc(C(=O)O)c1 (stereo partly shown) [2-21′] | 26
6 | C[C@@H](OC[C@H](O)CNC(C)(C)Cc1ccc(Cl)cc1F)c1ccccc1-c1ccc(C(=O)O)c(C(C)(C)C)c1 [Example 1-99, 2′-[1-[(2R)-3-[[1-(4-chloro-2-fluorophenyl)-2-methylpropan-2-yl]amino]-2-hydroxypropoxy]ethyl]-3-t-butylbiphenyl-4-carboxylic acid] | 23
7 | CC(C)(Cc1ccc2ccccc2c1)NC[C@@H](O)COC(c1ccccc1-c1ccc(C(=O)O)c(F)c1)C1CC1 (stereo partly drawn) [Example 1-64, 2′-[(cyclopropyl)[(2R)-3-[[1-(naphthalen-2-yl)-2-methylpropan-2-yl]amino]-2-hydroxypropoxy]methyl]-3-fluorobiphenyl-4-carboxylic acid] | 17
8 | Cc1ccc(CC(C)(C)NC[C@@H](O)CO[C@H](C)c2ccccc2-c2c(C)cc(C(=O)O)cc2C)cc1F [Example 1-76] | 22
9 | CCc1ccc(CC(C)(C)NC[C@@H](O)CO[C@H](C)c2ccccc2-c2ccc(C(=O)O)c(C)c2)cc1 [Example 1-24, 2′-[1-[(2R)-3-[[1-(4-ethylphenyl)-2-methylpropan-2-yl]amino]-2-hydroxypropoxy]ethyl]-3-methylbiphenyl-4-carboxylic acid] | 20

Continued, values first:

Row | IC50 [nM] | Structure (SMILES)
10 | 71 | COC(=O)c1ccc(Oc2ccccc2C(C)OC[C@H](O)CNC(C)(C)Cc2ccc3ccccc3c2)cc1 (stereo partly drawn) [Example 2-3, methyl 4-[2-[1-[(2R)-3-[[1-(naphthalen-2-yl)-2-methylpropan-2-yl]amino]-2-hydroxypropoxy]ethyl]phenoxy]benzoate]
11 | 16 | CC(OC[C@H](O)CNC(C)(C)Cc1ccc2ccccc2c1)c1ccccc1C=Cc1ccc(C(=O)O)cc1 (stereo partly drawn) [Example 2-9, 4-[2-[2-[1-[(2R)-3-[[1-(naphthalen-2-yl)-2-methylpropan-2-yl]amino]-2-hydroxypropoxy]ethyl]phenyl]vinyl]benzoic acid]
12 | 20 | CC(OC[C@H](O)CNC(C)(C)Cc1ccc2ccccc2c1)c1ccccc1OCc1ccccc1C(=O)O (stereo partly drawn) [Example 2-20, 2-[[2-[1-[(2R)-3-[[1-(naphthalen-2-yl)-2-methylpropan-2-yl]amino]-2-hydroxypropoxy]ethyl]phenoxy]methyl]benzoic acid]
13 | 11 | Cc1ccc(CC(C)(C)NC[C@@H](O)CO[C@H](C)c2ccccc2Oc2ccc(C(=O)O)c([N+](=O)[O-])c2)cc1F [Example 2-29, 4-[2-[1-[(2R)-3-[[1-(3-fluoro-4-methylphenyl)-2-methylpropan-2-yl]amino]-2-hydroxypropoxy]ethyl]phenoxy]-2-nitrobenzoic acid]
